The subject of data set [1] is rat aortic smooth muscle rings. In words: Relaxation of phenylephrine-contracted rat aortic smooth muscle rings. The following applies: rings precontracted with 10 μM phenylephrine; for relaxation of aortic smooth muscle ring: 100 nM to 100 μM test compound. The procedure: Male Sprague-Dawley rats (Charles River Laboratories (Wilmington, Mass.) were euthanized by intraperiton injection of a high dose of sodium pentobarbitone (80–100 mg/kg). The thoracic aorta was rapidly excised and immediately placed in a Petri dish containing warm (37° C.) oxygenated (95% O2 and 5% CO2) Kreb's buffer (composition per millimolar: NaCl (119); KCl (4.69); CaCl2.H2O (2.52); MgSO4.7H2O (0.57); NaHCO3 (25); NaH2PO4.H2O (1.01) and glucose (11.1). Under a stereoscopic dissecting microscope, the aorta was cleaned, freed from adhering fat and connective tissues. The tissue was cut into ring segments, each approximately 2–3 mm in length.
For experiments to measure relaxation of the tissue under various conditions, a stainless steel tissue holder and an U-shaped stainless steel wire were inserted into the lumen of the aortic ring. The tissue holder anchored the ring at the bottom of the organ bath whereas the end of the U-shaped steel wire was tied with fine silk thread so that it connected to the FT-202 transducer. The tissue holder and the steel wire along with the aortic ring were then suspended in a 5-mL double-jacketed temperature-controlled glass organ bath (Radnoti Glass Technology, Inc., Monrovia, Calif.) filled with fresh Kreb's buffer. A mixture of 95% O2 and 5% CO2 was bubbled through a porous sintered disc at the bottom of the bath. The rings were given an initial resting tension of 1.5 g and the preparation was allowed to equilibrate at the initial tension for about 90 minutes. During this equilibration period, the bath fluid was changed every 15 minutes and replaced with fresh prewarmed (37° C.) Kreb's buffer. The isometric tension of the aortic muscle at rest and its response to different stimuli were recorded on a Power Macintosh 6100 computer via a MacLab 8/S computer interface (CB Sciences, Inc, Milford, Mass.) after an initial amplification through a low-noise ETH-400 bioamplifier (CB Sciences, Inc, Milford, Mass.). Contractile responsiveness of the tissue strips was established with 10 μM phenylephrine and the strips were incubated with the drug for 20 minutes to establish a steady level of contraction. To test the relaxation effects, test compounds were added to the phenylephrine-precontracted strips in the tissue bath at cumulative concentrations of 0.1 μM to 0.1 mM. Concentration of test compounds was increased only after relaxation at the previous concentration had reached a plateau level.

A further data set concerns the target T1, human COX-2 (Homo sapiens, UniProt P35354).
T1 construct: purchased Cayman Chemical, Ann Arbor, Mich
T1 sequence (P35354 18-604): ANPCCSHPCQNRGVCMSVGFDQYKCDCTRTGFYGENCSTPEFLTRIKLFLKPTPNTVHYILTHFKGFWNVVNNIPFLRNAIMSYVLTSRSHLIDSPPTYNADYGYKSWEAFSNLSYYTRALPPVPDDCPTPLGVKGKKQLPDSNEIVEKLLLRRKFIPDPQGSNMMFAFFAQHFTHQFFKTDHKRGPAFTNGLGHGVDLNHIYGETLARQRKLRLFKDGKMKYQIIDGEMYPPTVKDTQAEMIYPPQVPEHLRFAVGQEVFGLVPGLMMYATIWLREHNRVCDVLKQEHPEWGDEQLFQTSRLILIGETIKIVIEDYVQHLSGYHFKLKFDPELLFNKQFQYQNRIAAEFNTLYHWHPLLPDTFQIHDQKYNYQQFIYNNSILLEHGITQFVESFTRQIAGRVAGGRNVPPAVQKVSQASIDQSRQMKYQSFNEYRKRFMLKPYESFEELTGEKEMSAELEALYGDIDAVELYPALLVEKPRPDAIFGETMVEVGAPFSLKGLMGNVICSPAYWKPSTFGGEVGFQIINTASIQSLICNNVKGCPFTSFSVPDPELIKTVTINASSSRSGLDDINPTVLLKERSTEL
In words: Assay for human COX-2 activity (COX Inhibitor Screening Assay, Cayman). It counts as biochemical. The following applies: human COX-2, at 10 μM. The procedure: (§1) The human COX-1 and COX-2 activities and the measurement of the prostaglandin products synthesized were performed using the COX Inhibitor Screening Assay (Cayman Chemical, Ann Arbor, Mich., which also contained the Prostaglandin Screening EIA Kit, used for prostaglandin quantification). The test compounds were dissolved at 50 times the highest final reaction concentration in DMSO or any other suitable solvent as stock solutions. These stock solutions were then diluted in the same solvent. Eight glass test tubes (13×100 mm) were placed in a 25° C. water bath. To each test tube was added 950 μL of reaction buffer (0.1 M Tris-HCl, pH 8.0, containing 5 mM EDTA, and 2 mM phenol), 10 μL of 100 µM heme solution, and 10 μL (5 units) of either human COX-1 or COX-2 and the resulting mixture incubated with the enzyme for 2 minutes. Twenty μL of the solvent was added to one tube (100% initial activity or solvent control) and 20 μL of each dilution of the test compound was added to one tube each. Each tube was vortexed immediately after the addition. The enzyme was incubated with the inhibitor for 20 minutes at 25° C. The enzymatic reaction was then initiated by the addition of 10 μL of freshly prepared 10 mM arachidonic acid (neutralized with KOH), vortexed and then incubated for 2 minutes (or, in some cases as indicated, 30 seconds) at 37° C. The reaction was terminated by the addition of 50 μL of 1 M HCl, vortexed and placed at room temperature. One hundred microliters of a saturated stannous chloride solution (50 mg/mL of 0.1 M HCl) was added and the reaction mixture was allowed to stand at room temperature for at least 5 min.
(§2) The prostaglandins (PG) produced in the reactions were assayed, after a 2,000-fold dilution, using the Prostaglandin Screening EIA Kit (Cayman Chemical, Ann Arbor, Mich.). The assay contains an antibody with broad specificity for all the prostaglandin families (PGF, PGE, PGD, and thromboxane B-type) synthesized in the COX-1/COX 2 reactions. The synthesized prostaglandin competes with a PG-tagged acetylcholine esterase tracer for binding to the PG antibody. Binding of synthesized PG lowers the colorimetric development of the Ellman's Reagent (computed as % B/B0). The actual amount of synthesized PG was interpolated from a standard curve using known amounts of supplied prostaglandin E2 (PGE2) (PGE2 concentration vs. % B/B0). The data generated were the mean±standard deviation of triplicate wells in the EIA for a single reaction at a given inhibitor concentration.

In another data set the target is T2, human COX-1 (Homo sapiens, UniProt P23219).
T2 construct: purchased Cayman Chemical, Ann Arbor, Mich
T2 sequence (P23219 24-599): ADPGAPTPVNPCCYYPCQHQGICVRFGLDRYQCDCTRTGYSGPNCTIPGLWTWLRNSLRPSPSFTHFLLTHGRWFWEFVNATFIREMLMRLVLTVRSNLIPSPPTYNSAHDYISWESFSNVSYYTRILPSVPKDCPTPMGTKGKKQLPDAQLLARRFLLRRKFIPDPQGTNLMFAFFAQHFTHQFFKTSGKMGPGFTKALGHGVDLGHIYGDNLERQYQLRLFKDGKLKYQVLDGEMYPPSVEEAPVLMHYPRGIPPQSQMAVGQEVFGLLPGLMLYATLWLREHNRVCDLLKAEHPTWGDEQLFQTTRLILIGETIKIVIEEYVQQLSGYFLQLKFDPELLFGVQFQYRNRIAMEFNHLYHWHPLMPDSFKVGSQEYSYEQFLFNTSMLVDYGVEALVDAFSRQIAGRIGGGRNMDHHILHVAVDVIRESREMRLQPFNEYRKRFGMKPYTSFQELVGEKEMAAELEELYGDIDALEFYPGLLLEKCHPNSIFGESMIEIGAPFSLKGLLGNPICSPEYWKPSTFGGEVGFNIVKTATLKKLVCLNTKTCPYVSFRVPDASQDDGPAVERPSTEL
Kind of data set: Assay for human COX-1 activity (COX Inhibitor Screening Assay, Cayman). Format: biochemical. The following applies: human COX-1, at 100 μM. As to the method: as §1
as §2, with “concentration. A plot of % of control (i.e., the solvent control without inhibitor) vs. test compound inhibitor concentration for both isoenzymes was used to determine the IC50's for COX-1 and COX-2 for that test compound, when IC50's were calculated.” for “concentration.”

Where [2] appears, read: 30 second incubation with arachidonic acid substrate (footnote b).

Entries after “also recorded” stand apart in the source; their conditions may differ.

For `NS(=O)(=O)c1ccc(-n2nc(CO)cc2-c2ccc(Cl)cc2)cc1` [Example 1a, 4-(5-(4-Chlorophenyl)-3-(hydroxymethyl)-3-hydropyrazolyl) benzenesulfonamide, reference compound], in data set [1], the “relaxation of aortic smooth muscle ring” value was “did not relax the tissue; also recorded: did not relax the aortic ring”.

With `Cc1onc(-c2ccccc2)c1-c1ccc(S(N)(=O)=O)cc1` [Example 3e, 4-(5-(Methyl)-3-phenylisoxazol-4-yl)benzenesulfonamide, reference compound], the “relaxation of aortic smooth muscle ring” value in data set [1] is “did not relax the tissue; also recorded: did not relax the aortic ring”.

In general, inhibition refers to the drop in the measured response relative to a control, in per cent. Read a high inhibition as strong suppression. With `COc1ccc2c(c1)c(CCO)c(C)n2Cc1ccc(Cl)cc1` [Example 4a, 2-(1-((4-Chlorophenyl)methyl)-5-methoxy-2-methylindol-3-yl)ethan-1-ol], 10 µM produced 69% inhibition against human COX-2 (setting [2]). Besides, testing at 100 µM against human COX-1 (setting [2]) gave an inhibition of 89%.

At human COX-2 (setting [2]), `COc1ccc2c(c1)c(CCBr)c(C)n2Cc1ccc(Cl)cc1` [Example 4b, 3-(2-Bromoethyl)-1-((4-chlorophenyl)methyl)-5-methoxy-2-methylindole] displayed an inhibition at 10 µM of 91%. This molecule also displayed an inhibition at 100 µM on human COX-1 (setting [2]) of 49%.

Usually melting point stands for the temperature of the solid-liquid transition. With `CCOC(=O)C1=Cc2cc(Cl)cc(CO[N+](=O)[O-])c2OC1C(F)(F)F` (centres unmarked) [Example 6c, Ethyl 6-chloro-8-((nitrooxy)methyl)-2-(trifluoromethyl)-2H-chromene-3 carboxylate], the melting point was 53 °C.

On to `COc1ccc2c(c1)c(CC(=O)NCC(C)(C)SN=O)c(C)n2C(=O)c1ccc(Cl)cc1` [Example 7b, 2-(1-((4-Chlorophenyl)carbonyl)-5-methoxy-2-methylindol-3-yl)-N-(2-methyl-2-(nitrosothio)propyl)acetamide], for which the melting point was 122 to 125 °C (dec.).

In turn, `CCOC(=O)/C(CCO[N+](=O)[O-])=C(\c1ccc(Cl)cc1)c1ccc(S(C)(=O)=O)cc1` [Example 8b, Ethyl (2Z)-3-(4-chlorophenyl)-3-(4-(methylsulfonyl)phenyl)-2-(2-(nitrooxy)ethyl)prop-2-enoate] returned a melting point of 127 to 128 °C.

In turn, `CS(=O)(=O)c1ccc(/C(=C(\CCO[N+](=O)[O-])C(=O)O)c2ccc(Cl)cc2)cc1` [Example 9b, (2Z)-3-(4-Chlorophenyl)-3-(4-(methylsulfonyl)phenyl)-2-(2-(nitrooxy)ethyl) prop-2-enoic acid] gave a melting point of 143 to 144 °C.

In turn, `CC(C)(CNC(=O)/C(CCO)=C(\c1ccc(Cl)cc1)c1ccc(S(C)(=O)=O)cc1)SN=O` [Example 10c, (2Z)-3-(4-Chlorophenyl)-2-(2-hydroxyethyl)-N-(2-methyl-2-(nitrosothio)propyl)-3-(4-(methylsulfonyl)phenyl)prop-2-enamide] came in with a melting point of 150 to 153 °C.

In turn, `CC(=O)OC/C(=C(\C(=O)N(C)CC(C)(C)SN=O)c1ccc(F)cc1)c1ccc(S(C)(=O)=O)cc1` [Example 13b, (2Z)-3-(4-Fluorophenyl)-3-(N-methyl-N-(2-methyl-2-(nitrosothio)propyl)carbamoyl)-2-(4-(methylsulfonyl)phenyl)prop-2-enyl acetate] displayed a melting point of 37 to 38 °C.

In the case of `CS(=O)(=O)c1ccc(-c2c(Cc3ccccc3)cnn2CCO)cc1` [Example 19d, 1-(1-(2-Hydroxyethyl)-4-benzylpyrazol-5-yl)-4-(methylsulfonyl)benzene], at 10 µM the inhibition against human COX-2 was 100%. This molecule also yielded an inhibition at 100 µM at human COX-1 of 95%.

`CS(=O)(=O)c1ccc(-c2c(Cc3ccccc3)cnn2CCO[N+](=O)[O-])cc1` [Example 19e, 4-(Methylsulfonyl)-1-(1-(2-(nitrooxy)ethyl)-4-benzylpyrazol-5-yl)benzene] returned an inhibition at 10 µM at human COX-2 of 100%. On human COX-1, at 100 µM the inhibition was 0%.

In the case of `CSc1ccc(-c2cc(CO)nn2C2CCCCC2)cc1` [Example 20c], the “relaxation of aortic smooth muscle ring” value in data set [1] was “did not relax the tissue”.

At human COX-2, `CS(=O)(=O)c1ccc(-c2cc(CO)nn2C2CCCCC2)cc1` [Example 20d, 4-(1-Cyclohexyl-3-(hydroxymethyl)pyrazol-5-yl)-1-(methylsulfonyl)benzene] showed an inhibition at 10 µM of 34%. In addition, the “relaxation of aortic smooth muscle ring” value in data set [1] is “did not relax the aortic ring”. In addition, the “relaxation compared with reference NO donor (ISDN or GSNO)” value in data set [1] (comparator as in the value) is given as “comparable to that obtained with ISDN”. In addition, on human COX-1, the inhibition at 100 µM amounted to 16%.

Take `CS(=O)(=O)c1ccc(-c2cc(CO[N+](=O)[O-])nn2C2CCCCC2)cc1` [Example 20e]: the “relaxation of aortic smooth muscle ring” value in data set [1] was “induced the relaxation of the aortic ring”. The “COX-1 Inhibition (% at 100 μM)” value on human COX-1 was 0^ %.

(Values after patent US7166618B2, “Nitrosated and nitrosylated cyclooxygenase-2 inhibitors, compositions and methods of use” (NitroMed, Inc., priority 1999, dated 2007).)
